Test results published in PMC11413854, “Reversible Control of Native GluN2B-Containing NMDA Receptors with Visible Light” (ACS Chemical Neuroscience, 2024).

Key:
[1] = Thermal stability of the PSS in the dark and fatigability over illumination cycles; assay type: physicochemical; conditions: for A(320 nm): Sup. Fig. 1C; for A(371 nm): Sup. Fig. 1G; for A(334 nm): Sup. Fig. 1K
Text: , we focused on the three key properties allowing the use of azobenzenes in biological systems: (i) wavelengths for trans-to-cis and cis-to-trans conversions; (ii) compound thermalstability, i.e., half-life of the cis isomer in the dark; and (iii) fatigability, i.e., the number of illumination cycles that the molecule can undergo without degradation. To this aim, […] recording solution (Ringer pH 7.3; see Methods) either in the dark (absence of illumination) or after illumination by light wavelengths ranging from 350 to 580 nm (Figures 2B and S1M). In the dark (black curve in Figure 2B), the spectrum was characteristic of a trans isomer.[32] Application of UV light at a wavelength close to the main absorption peak of the trans form (365 or 350 nm) gave a completely different spectrum (violet curves in Figure 2B), characteristic of azobenzenes in their cis configuration.[32] […] states (PSS) containing 100% trans in the dark, 82% cis and 18% residual trans after illumination at 365 nm (365 nm PSS, violet curve in Figure 2C), and 91% cis and 9% residual trans after illumination at 350 nm (350 nm PSS, lavender curve in Figure 2C). […] from 435 to 550 nm gave equivalent cis-to-trans conversions with 435 and 550 nm yielding slightly stronger conversions (∼70% trans after illumination at 435 and 550 nm calculated from UV–visible spectra at λtrans = 329 nm, Figures 2B and S1N; 550 nm PSS of 69% trans and 31% cis measured by HPLC, Figure 2C, green trace). 550 nm was chosen as the optimal wavelength since green light is less harmful for cells than lights of shorter wavelengths. We then tested the thermal stability of the cis form in the dark (in the absence of illumination). […]
Thermal stability of the cis state (365 nm PSS) was measured by irradiating the solution with 365 nm light during 10 min, then letting it relax in the dark, at room temperature (20–22 °C), inside the spectrophotometer. Spectra were acquired at regular intervals, up to 1 day, after irradiation.

GluN1/GluN2B-Q110G = target: T1, GluN1/GluN2B-Q110G (UniProt P35439+Q01097, Q110G); assay: TEVC on Xenopus oocytes, EVT-101 site mutant; assay type: cell-based, rat GluN1, mouse GluN2B; conditions: 1 µM trans-OptoNAM-3 (dark)
T1 construct: expressed in transfected cells; host or cells: Xenopus laevis oocytes (nuclear cDNA injection)
T1 sequence (Q01097 27-1482 Q110G, other chains not shown): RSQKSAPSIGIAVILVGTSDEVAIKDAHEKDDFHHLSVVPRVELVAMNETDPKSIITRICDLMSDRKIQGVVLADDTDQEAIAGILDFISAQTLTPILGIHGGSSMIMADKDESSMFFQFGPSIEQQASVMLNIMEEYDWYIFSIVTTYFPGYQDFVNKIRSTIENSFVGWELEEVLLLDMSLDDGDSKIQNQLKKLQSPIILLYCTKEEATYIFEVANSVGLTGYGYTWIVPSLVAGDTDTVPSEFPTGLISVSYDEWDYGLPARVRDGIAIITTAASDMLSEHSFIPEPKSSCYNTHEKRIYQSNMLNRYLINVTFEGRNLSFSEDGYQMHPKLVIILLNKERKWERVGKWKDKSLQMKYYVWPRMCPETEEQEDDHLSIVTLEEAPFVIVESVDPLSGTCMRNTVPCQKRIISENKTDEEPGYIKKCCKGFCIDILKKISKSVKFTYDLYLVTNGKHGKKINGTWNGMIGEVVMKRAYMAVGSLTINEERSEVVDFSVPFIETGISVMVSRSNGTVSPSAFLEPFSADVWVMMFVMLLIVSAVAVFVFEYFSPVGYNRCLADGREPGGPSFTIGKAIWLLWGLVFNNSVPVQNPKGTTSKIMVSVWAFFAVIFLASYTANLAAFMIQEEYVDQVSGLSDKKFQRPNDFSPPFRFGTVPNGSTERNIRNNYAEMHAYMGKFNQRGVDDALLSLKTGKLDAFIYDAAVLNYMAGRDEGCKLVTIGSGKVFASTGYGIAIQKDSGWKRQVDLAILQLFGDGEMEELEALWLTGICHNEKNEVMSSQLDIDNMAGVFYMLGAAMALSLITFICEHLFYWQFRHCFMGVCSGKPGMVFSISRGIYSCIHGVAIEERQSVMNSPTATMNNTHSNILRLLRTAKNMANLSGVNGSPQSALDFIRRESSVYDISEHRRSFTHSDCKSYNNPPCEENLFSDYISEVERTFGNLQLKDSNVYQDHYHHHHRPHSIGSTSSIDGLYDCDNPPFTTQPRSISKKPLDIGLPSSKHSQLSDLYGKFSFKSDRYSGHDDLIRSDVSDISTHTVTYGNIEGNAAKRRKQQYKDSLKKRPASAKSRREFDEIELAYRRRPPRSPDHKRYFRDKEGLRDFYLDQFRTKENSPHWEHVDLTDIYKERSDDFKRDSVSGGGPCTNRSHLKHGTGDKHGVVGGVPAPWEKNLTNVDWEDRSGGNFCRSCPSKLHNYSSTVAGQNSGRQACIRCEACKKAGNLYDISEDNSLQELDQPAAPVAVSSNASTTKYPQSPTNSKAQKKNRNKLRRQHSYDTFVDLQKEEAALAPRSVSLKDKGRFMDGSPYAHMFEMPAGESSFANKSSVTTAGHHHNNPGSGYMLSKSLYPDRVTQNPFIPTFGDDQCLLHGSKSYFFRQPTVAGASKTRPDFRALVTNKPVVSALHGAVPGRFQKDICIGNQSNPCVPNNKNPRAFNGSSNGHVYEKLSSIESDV
Text: We finally investigated the location of the OptoNAM-3 binding-site on the receptor. […] The binding site for GluN2B-selective antagonists at the GluN1/GluN2B NTD dimer interface contains two partially overlapping pockets that accommodate GluN2B-selective NAMs of distinct chemical scaffolds:[19] either scaffolds related to ifenprodil or scaffolds related to another GluN2B-selective NAM called EVT-101.[47]
We used cDNA coding for rat GluN1–1a (named GluN1 herein) (GenBank: U08261.1), rat GluN2A (GenBank: D13211.1), mouse GluN2B (GenBank: D10651.2), rat GluA1 flop (GenBank: M36418.2), and rat Myc-GluA2(Q)-flip (GenBank: AF164344.1) cloned into pcDNA3-based expression plasmids. GluK2 (GenBank: Z11548.1) corresponds to the fully RNA-edited version.[80] The GluN2B-ΔNTD construct is from ref[45] and GluN2B–N615K is from ref[81]. Single mutants GluN2B-Q110G and GluN1-L135H were from ref[19]. The GluA2 cDNA contains a Myc tag ([…]) fused between the signal peptide and the N-terminus sequences, and the GluA2 subunit is […] for its Q/R/N site (GluA2(Q)) to allow permeation of homomeric GluA2 receptors.[2] cDNAs coding for rat GluN2C (GenBank: M91563.1) and GluN2D subunits (GenBank: L31611.1) were in prK5 plasmids. […]

[2] = Ringer pH 7.3, room temperature

Nc1ccnc(/N=N/c2ccccc2)c1 [OptoNAM-1, (E)-2-(phenyldiazenyl)pyridin-4-amine]
thermal stability of the 365 nm PSS (mostly cis) in the dark: time without change of spectra [1, 2]: ≥ 60 min
A(320 nm) ([1]; 365 nm (t=0)): 0.092
A(320 nm) ([1]; 365 nm (t=2 min)): 0.093
A(320 nm) ([1]; 365 nm (t=5min)): 0.093
A(320 nm) ([1]; 365 nm (t=10 min)): 0.093
A(320 nm) ([1]; 365 nm (t=20min)): 0.093
A(320 nm) ([1]; 365 nm (t=40min)): 0.094
A(320 nm) ([1]; 365 nm (t=60min)): 0.094
A(320 nm) ([1]; dark): 0.207

Cc1cc(N)nc(/N=N/c2ccccc2)c1 [OptoNAM-2, (E)-4-methyl-6-(phenyldiazenyl)pyridin-2-amine]
thermal stability of the 365 nm PSS (mostly cis) in the dark: time without change of spectra [1, 2]: ≥ 60 min
A(371 nm) ([1]; 365 nm (t=0)): 0.257
A(371 nm) ([1]; 365 nm (t=1 min)): 0.255
A(371 nm) ([1]; 365 nm (t=5min)): 0.256
A(371 nm) ([1]; 365 nm (t=10 min)): 0.255
A(371 nm) ([1]; 365 nm (t=20 min)): 0.257
A(371 nm) ([1]; 365 nm (t=40min)): 0.258
A(371 nm) ([1]; 365 nm (t=60min)): 0.260

c1ccc(/N=N/c2ccc(CCNc3ccncc3)cc2)cc1 [OptoNAM-3, (E)-N-(4-(Phenyldiazenyl)phenethyl)pyridin-4-amine]
inhibition of GluN1/GluN2B-Q110G (GluN1/GluN2B-Q110G): 65.503%
thermal stability of the 550 nm PSS in the dark: time without change of spectrum [1, 2]: ≥ 24 h
cycles of UV/green illumination without degradation ([1]; absorbance at 329 nm): ≥ 10 cycles

CS(=O)(=O)Nc1ccc2nc(Cc3ccc(/N=N/c4ccccc4)cc3)[nH]c2c1 [OptoNAM-4, (E)-N-(2-(4-(phenyldiazenyl)benzyl)-1H-benzo[d]imidazol-6-yl)methanesulfonamide]
thermal stability of the 365 nm PSS (mostly cis) in the dark: time without change of spectra [1, 2]: only little change
A(334 nm) ([1]; 365 nm (t=0)): 0.207
A(334 nm) ([1]; 365 nm (t=5 min)): 0.200
A(334 nm) ([1]; 365 nm (t=15 min)): 0.206
A(334 nm) ([1]; 365 nm (t=30min)): 0.211
A(334 nm) ([1]; 365 nm (t=40 min)): 0.208
A(334 nm) ([1]; 365 nm (t=60min)): 0.242
